The record followed here is ChEMBL document CHEMBL1128166, “Synthesis and antiviral activity of rigid acyclonucleotide analogs” (Bioorg Med Chem Lett, 1995).

The EC50 is the concentration at which the effect is half-maximal. High values mean lower potency in that assay, low ones higher potency in that assay. One may read the CC50 as the concentration at which the toxic effect on the cells reaches its halfway point. The low end stands for harm at low concentration, the high end for better tolerance by the cells. By Km is commonly meant the concentration of substrate that gives half-maximal velocity.

The subject of data set [1] is C8166. The data set is described as follows: Concentration required to inhibit p24 viral antigen production by 50% in C-8166 cells. It counts as functional, cell-based. As to conditions: Homo sapiens.
Data set [2] has as its system Vero. Kind of data set: Anti-herpes virus activity was evaluated against Herpes simplex virus type 1 (HSV-1,strain HF) grown in Vero cells. The class given is functional, cell-based. Conditions: Chlorocebus sabaeus.
The subject of data set [3] is MRC5. The data set is described as follows: The lowest concentration of compound producing overt cytotoxicity in virus-free MRC-5 cell cultures. The class given is functional. Conditions: Homo sapiens.
For data set [4], the system named is Vero. The data set is described as follows: Anti-herpes virus activity was evaluated against Herpes simplex virus type 2 (HSV-2,strain G) grown in Vero cells. Conditions: Chlorocebus sabaeus. The class given is functional, cell-based.
In data set [5] the test system is MT4. The data set is described as follows: Concentration required to inhibit HIV-1-induced cytopathic effect by 50% in MT-4 cells. As to conditions: Homo sapiens. It counts as functional, cell-based.
For data set [6], the system named is Vero. Kind of data set: The lowest concentration of compound producing overt cytotoxicity in virus-free vero cell cultures. It counts as functional. As to conditions: Chlorocebus sabaeus.
Data set [7] relates to MT4. Kind of data set: Cytotoxic concentration required to reduce the viability of MT-4 cells. The class given is functional. As to conditions: Homo sapiens.
The test system of data set [8] is MRC5. The data set is described as follows: Anti-herpes virus activity was evaluated against human cytomegalovirus (HCMV, strain AD-169) grown in MRC-5 cells. The class given is functional, cell-based.
Data set [9] relates to Guanylate kinase (Sus scrofa). Kind of data set: Percent efficiency phosphorylated by guanylate kinase taken from hog brain.
Substrate in data set [10]: C=C(COCP(=O)(O)O)Cn1cnc2c(O)nc(N)nc21
The data set is described as follows: (§1) Michaelis-Menten constant (Km) for guanylate kinase was determined. As to conditions: Sus scrofa.

Substrate in data set [11]: Nc1nc2c(ncn2[C@@H]2O[C@H](COP(=O)(O)O)[C@@H](O)[C@H]2O)c(=O)[nH]1
Described as §1.

Substrate in data set [12]: C=C(COCP(=O)(O)O)Cn1cnc2c(O)nc(N)nc21
The data set is described as follows: Vmax for guanylate kinase was determined. As to conditions: Sus scrofa.

As for `Nc1ncnc2c1ncn2C/C=C\COCP(=O)(O)O`, the EC50 in data set [1] is 38 µM; in data set [2] it was more than 250 µM; in [4], more than 250 µM; in [5], 170 µM; in [8], more than 250 µM. Moreover, the CC50 in data set [3] is more than 250 µM; in data set [6], not below 250 µM; in data set [7], more than 1000 µM.

Take `Nc1ncnc2c1ncn2CC#CCOCP(=O)(O)O`: the EC50 in data set [1] is more than 100 µM; in data set [2], more than 250 µM; in [4] it was more than 250 µM; in data set [5] it was more than 100 µM; in data set [8], more than 250 µM. The CC50 in data set [3] was more than 250 µM; in data set [6], not below 250 µM; in data set [7], 800 µM.

With `C=C(COCP(=O)(O)O)Cn1ccc(N)nc1=O`, the EC50 in data set [1] is more than 100 µM; in data set [2], more than 250 µM; in [4] it was more than 250 µM; in data set [5], more than 100 µM; in data set [8], more than 250 µM. Further, the CC50 in [3] is more than 250 µM; in data set [6], more than 250 µM; in [7], more than 100 µM.

For `Nc1ccn(C/C=C\COCP(=O)(O)O)c(=O)n1`, the concentration for a half-maximal effect (EC50) in data set [1] is more than 100 µM; in [2], more than 250 µM; in data set [4] it was more than 250 µM; in [5], more than 100 µM; in data set [8], more than 250 µM. Besides, the figures for the CC50 in [3], in data set [6] and in data set [7] were more than 250 µM, more than 250 µM and more than 100 µM, respectively.

For the molecule `Nc1ccn(CC#CCOCP(=O)(O)O)c(=O)n1`, the EC50 in [1] is more than 100 µM; in [2] it was more than 250 µM; in data set [4] it was more than 250 µM; in data set [5] it was more than 100 µM; in data set [8], more than 250 µM. The 50% cytotoxic concentration (CC50) in data set [3] is more than 250 µM; in data set [6] it was more than 250 µM; in data set [7] it was more than 100 µM.

For the molecule `Cc1cn([C@H]2C[C@H](N=[N+]=[N-])[C@@H](CO)O2)c(=O)[nH]c1=O` [ZIDOVUDINE], the EC50 amounted to 0.03 µM in data set [1] and 0.035 µM in [5]. In [7], it took 113 µM to reach half-maximal cytotoxicity (CC50).

Consider `C=C(COCP(=O)(O)O)Cn1cnc2c(O)nc(N)nc21`, for which the EC50 in data set [1] is 1.9 µM; in [2], more than 250 µM; in [4] it was more than 250 µM; in [5], 25 µM; in [8], 34 µM. Further, the CC50 is more than 250 µM in data set [3], more than 250 µM in data set [6] and 1800 µM in data set [7]. The Efficacy in data set [9] was found to be 0.6%.

Consider `Nc1ncnc2c1ncn2CCOCP(=O)(O)O` [ADEFOVIR], for which the concentration giving a half-maximal response (EC50) in data set [1] came out at 1.7 µM; in data set [2], 58 µM; in data set [4], 69 µM; in data set [5], 22 µM; in [8], 36 µM. The values for the CC50 in data set [3], in data set [6] and in data set [7] were more than 250 µM, not below 250 µM and 187 µM, respectively.

For `Nc1nc2c(ncn2COCCO)c(=O)[nH]1` [ACYCLOVIR], the EC50 worked out at 6 µM in data set [2], 3 µM in [4] and 18 µM in data set [8]. Further, the values for the CC50 in data set [3] and in [6] were not below 100 µM and more than 100 µM, respectively.

`Nc1nc(O)c2ncn(C/C=C\COCP(=O)(O)O)c2n1`: the EC50 in data set [1] is more than 100 µM; in [2], 37 µM; in [4] it was more than 250 µM; in data set [5], more than 100 µM; in data set [8] it was more than 250 µM. Besides, the CC50 was more than 250 µM in data set [3], more than 250 µM in data set [6] and more than 1000 µM in data set [7].

Regarding `C=C(COCP(=O)(O)O)Cn1cnc2c(N)ncnc21`, the EC50 is more than 100 µM in [1]; 36 µM in data set [2]; more than 250 µM in [4]; more than 100 µM in data set [5]; more than 250 µM in data set [8]. For the same molecule, the CC50 was more than 250 µM in data set [3], more than 250 µM in data set [6] and more than 1000 µM in data set [7].

B1: Guanylate kinase (Homo sapiens), Q16774 (protein)
chain: MSGPRPVVLSGPSGAGKSTLLKRLLQEHSGIFGFSVSHTTRNPRPGEENGKDYYFVTREVMQRDIAAGDFIEHAEFSGNLYGTSKVAVQAVQAMNRICVLDVDLQGVRNIKATDLRPIYISVQPPSLHVLEQRLRQRNTETEESLVKRLAAAQADMESSKEPGLFDVVIINDSLDQAYAELKEALSEEIKKAQRTGA
Consider B1, for which the Km in [10] is 238 µM; in data set [11], 18 µM. In data set [12], the Vmax came out at 8%.
